Assay results: patent publication US20130217664A1, “NOVEL COMPOUNDS USEFUL FOR THE TREATMENT OF DEGENERATIVE AND INFLAMMATORY DISEASES” (priority 2012, published 2013)
Like-named read-outs stand apart in the source and are kept apart here.

Experiments:
human TYK2 = target: T1, human TYK2 (Homo sapiens, UniProt P29597); test: TYK2 inhibition assay; type: biochemical; details: recombinant human TYK2 catalytic domain, polyGT substrate
T1 construct: catalytic domain (amino acids 871-1187; catalog number 08-147); purchased Carna Biosciences 08-147
T1 sequence (P29597 871-1187): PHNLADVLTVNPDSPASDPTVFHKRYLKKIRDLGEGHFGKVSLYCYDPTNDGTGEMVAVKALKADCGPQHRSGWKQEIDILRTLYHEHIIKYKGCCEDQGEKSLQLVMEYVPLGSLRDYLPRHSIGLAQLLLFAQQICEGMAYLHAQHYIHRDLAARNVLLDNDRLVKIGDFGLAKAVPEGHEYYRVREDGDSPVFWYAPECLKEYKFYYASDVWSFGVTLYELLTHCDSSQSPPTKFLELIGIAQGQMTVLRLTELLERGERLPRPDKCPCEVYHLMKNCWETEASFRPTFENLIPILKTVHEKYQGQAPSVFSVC
Summary of the method: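 Radiometric kinase reaction run 90 min at 30 °C, stopped with phosphoric acid, washed and scintillation-counted.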

[1] = tested on: pSTAT1(2)-luciferase reporter in HeLa cells triggered with human OSM; test: JAK-STAT signalling assay; type: cell-based; details: read-out: JAK-STAT IC50
Method: JAK-STAT Signalling Assay
HeLa cells were maintained in Dulbecco's Modified Eagle's Medium (DMEM) containing 10% heat inactivated fetal calf serum, 100 U/mL penicillin and 100 μg/mL streptomycin. HeLa cells were used at 70% confluence for transfection. 20,000 cells in 87 μL cell culture medium were transiently transfected with 40 ng pSTAT1(2)-luciferase reporter (Panomics), 8 ng of LacZ reporter as internal control reporter and 52 ng of pBSK using 0.32 μL Jet-PEI (Polyplus) as transfection reagent per well in 96-well plate format. After overnight incubation at 37° C., 5% CO2, transfection medium was removed. 81 μL of DMEM+1.5% heat inactivated fetal calf serum was added. 9 μL compound at 10× concentration was added for 60 min and then 10 μL of human OSM (Peprotech) at 33 ng/mL final concentration.
After overnight incubation at 37° C., 5% CO2 cells were lysed by adding 100 μL lysis buffer/well (PBS, 0.9 mM CaCl2, 0.5 mM MgCl2, 10% Trehalose, 0.05% Tergitol NP9, 0.3% BSA).
40 μL of cell lysate was used to read β-galactosidase activity by adding 180 μL β-Gal solution (30 μL ONPG 4 mg/mL+150 μL β-Galactosidase buffer (0.06 M Na2HPO4, 0.04 M NaH2PO4, 1 mM MgCl2)) for 20 min.
Luciferase activity was measured using 40 μL cell lysate plus 40 μL of Steadylite as described by the manufacturer (Perkin Elmer), on the Envision (Perkin Elmer).
The positive and negative controls were used to calculate z′ and ‘percent inhibition’ (PIN) values.
Percentage inhibition=((fluorescence determined in the presence of vehicle−fluorescence determined for sample with test compound present)divided by(fluorescence determined in the presence of vehicle−fluorescence determined for sample without trigger))*100.
PIN values were plotted for compounds tested in dose-response and EC50 values were derived.

human JAK1 = target: T2, human JAK1 (Homo sapiens, UniProt P23458); test: JAK1 inhibition assay (polyGT substrate / Ulight-JAK1 peptide); type: biochemical; details: recombinant human JAK1 catalytic domain; polyGT or Ulight-JAK1 peptide assay
T2 construct: catalytic domain, amino acids 866-1154; catalog number PV4774; purchased Invitrogen PV4774
Summary of the method: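 Two formats. PolyGT radiometric: 45 min at 30 °C, stopped with phosphoric acid, counted as cpm. Ulight-JAK1 peptide: 60 min at room temperature, stopped with Eu-anti-phosphotyrosine/EDTA, read as RFU. Percent inhibition normalised to vehicle and 10 μM staurosporine.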

human JAK3 = target: T3, human JAK3 (Homo sapiens, UniProt P52333); test: JAK3 inhibition assay; type: biochemical; details: recombinant human JAK3 catalytic domain; polyGT substrate
T3 construct: catalytic domain (amino acids 781-1124; catalog number PV3855); purchased Invitrogen PV3855
Summary of the method: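 Radiometric kinase assay: 0.5 ng JAK3 with 2.5 μg polyGT in Tris pH 7.5/MgCl2 buffer, 1 μM ATP plus 0.25 μCi 33P-γ-ATP, 1% DMSO, 45 min at 30 °C, stopped with phosphoric acid.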

[2] = Homo sapiens, HeLa, HeLa cells, pSTAT1(2)-luciferase reporter, human OSM 33 ng/mL
[3] = HeLa cells, pSTAT1(2)-luciferase reporter, human OSM 33 ng/mL

T2 sequence (P23458 866-1154): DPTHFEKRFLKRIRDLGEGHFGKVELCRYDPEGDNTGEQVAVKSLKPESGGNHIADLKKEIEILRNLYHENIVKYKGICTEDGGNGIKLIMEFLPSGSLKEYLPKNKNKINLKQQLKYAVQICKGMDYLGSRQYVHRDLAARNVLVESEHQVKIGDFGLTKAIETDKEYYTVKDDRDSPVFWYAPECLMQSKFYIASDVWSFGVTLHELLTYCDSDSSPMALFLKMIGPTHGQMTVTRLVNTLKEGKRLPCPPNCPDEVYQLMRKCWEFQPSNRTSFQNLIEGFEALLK
T3 sequence (P52333 781-1124): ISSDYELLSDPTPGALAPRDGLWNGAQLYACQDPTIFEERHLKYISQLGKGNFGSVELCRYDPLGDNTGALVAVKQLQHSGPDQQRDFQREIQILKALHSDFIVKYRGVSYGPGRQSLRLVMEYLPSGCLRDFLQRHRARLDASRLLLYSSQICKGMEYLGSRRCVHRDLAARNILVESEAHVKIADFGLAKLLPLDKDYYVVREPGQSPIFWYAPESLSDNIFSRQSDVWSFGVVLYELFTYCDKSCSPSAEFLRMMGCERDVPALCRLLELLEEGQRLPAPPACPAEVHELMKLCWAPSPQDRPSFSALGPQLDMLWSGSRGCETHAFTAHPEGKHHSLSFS

| SMILES | IC50 (human TYK2) [nM] | IC50 [1, 2] [nM] | IC50 (human JAK1) [nM] | IC50 (human JAK3) [nM] | IC50 [1, 3] [nM] | IC50 ([1]; Homo sapiens, HeLa) [nM] |
| --- | --- | --- | --- | --- | --- | --- |
| CCc1cc(C2=CCN(C(=O)NC#N)CC2)ccc1N(C)c1cc2c(cn1)ncn2C [Compound 203, N-cyano-4-(3-ethyl-4-(methyl(1-methyl-1H-imidazo[4,5-c]pyridin-6-yl)amino)phenyl)-5,6-dihydropyridine-1(2H)-carboxamide] | 0.01 to 100 | > 1000 | 0.01 to 100 | 0.01 to 100 |  |  |
| CCc1cc(C2=CCN(C(=O)N3CCC3)CC2)ccc1N(C)c1cc2c(cn1)ncn2C [Compound 205, azetidin-1-yl(4-(3-ethyl-4-(methyl(1-methyl-1H-imidazo[4,5-c]pyridin-6-yl)amino)phenyl)-5,6-dihydropyridin-1(2H)-yl)methanone] | 0.01 to 100 | 1 to 500 | 0.01 to 100 | 101 to 500 |  |  |
| CCc1cc(C2=CCN(C(=O)N(C)CC)CC2)ccc1N(C)c1cc2c(cn1)ncn2C [Compound 206, N-ethyl-4-(3-ethyl-4-(methyl(1-methyl-1H-imidazo[4,5-c]pyridin-6-yl)amino)phenyl)-N-methyl-5,6-dihydropyridine-1(2H)-carboxamide] | 0.01 to 100 | > 1000 | 0.01 to 100 | 101 to 500 |  |  |
| CCc1cc(C2=CCN(C(=O)N(C)CC#N)CC2)ccc1N(C)c1cc2c(cn1)ncn2C [Compound 207, N-(Cyanomethyl)-4-(3-ethyl-4-(methyl(1-methyl-1H-imidazo[4,5-c]pyridin-6-yl)amino)phenyl)-N-methyl-5,6-dihydropyridine-1(2H)-carboxamide] | 0.01 to 100 |  | 0.01 to 100 | 101 to 500 |  | 501 to 1000 |
| CCc1cc(-c2cnn(Cc3ccc(OC)cc3)c2)ccc1N(C)c1cc2c(cn1)ncn2C [Compound 208, N-(2-ethyl-4-(1-(4-methoxybenzyl)-1H-pyrazol-4-yl)phenyl)-N,1-dimethyl-1H-imidazo[4,5-c]pyridin-6-amine] | 0.01 to 100 | 1 to 500 | 0.01 to 100 | 101 to 500 |  |  |
| CCc1cc(C2=CCN(C(=O)NC3COC3)CC2)ccc1N(C)c1cc2c(cn1)ncn2C [Compound 215] | 0.01 to 100 | > 1000 | 0.01 to 100 | 101 to 500 |  |  |
| CCc1cc(C2=CCN(C(=O)OCC#N)CC2)ccc1N(C)c1cc2c(cn1)ncn2C [Compound 216, Cyanomethyl 4-(3-ethyl-4-(methyl(1-methyl-1H-imidazo[4,5-c]pyridin-6-yl)amino)phenyl)-5,6-dihydropyridine-1(2H)-carboxylate] | 0.01 to 100 |  | 0.01 to 100 | 101 to 500 |  | > 1000 |
| CCc1cc(-c2cnn(CCN3CCCC3)c2)ccc1N(C)c1cc2c(cn1)ncn2C [Compound 219, N-(2-ethyl-4-(1-(2-(pyrrolidin-1-yl)ethyl)-1H-pyrazol-4-yl)phenyl)-N,1-dimethyl-1H-imidazo[4,5-c]pyridin-6-amine] | 0.01 to 100 | 1 to 500 | 0.01 to 100 | > 1000 |  |  |
| CCC(=O)N1CCC(c2ccc(N(C)c3cc4c(cn3)ncn4C)c(CC)c2)CC1 [Compound 223, 1-(4-(3-ethyl-4-(methyl(1-methyl-1H-imidazo[4,5-c]pyridin-6-yl)amino)phenyl)piperidin-1-yl)propan-1-one] | 0.01 to 100 |  | 0.01 to 100 | 101 to 500 | 1 to 500 |  |
| CCc1cc(C2CCN(C(=O)CC#N)CC2)ccc1N(C)c1cc2c(cn1)ncn2C [Compound 224, 3-(4-(3-ethyl-4-(methyl(1-methyl-1H-imidazo[4,5-c]pyridin-6-yl)amino)phenyl)piperidin-1-yl)-3-oxopropanenitrile] | 0.01 to 100 |  | 0.01 to 100 | 101 to 500 | 501 to 1000 |  |
| CCc1cc(C2CCN(C(=O)COC)CC2)ccc1N(C)c1cc2c(cn1)ncn2C [Compound 226, 1-(4-(3-ethyl-4-(methyl(1-methyl-1H-imidazo[4,5-c]pyridin-6-yl)amino)phenyl)piperidin-1-yl)-2-methoxyethanone] | 0.01 to 100 |  | 0.01 to 100 | 101 to 500 | > 1000 |  |

Now from value to compound, other results behind:

| IC50 (human TYK2) [nM] | IC50 [1, 2] [nM] | IC50 (human JAK1) [nM] | IC50 (human JAK3) [nM] | IC50 [1, 3] [nM] | SMILES | IC50 ([1]; Homo sapiens, HeLa) [nM] |
| --- | --- | --- | --- | --- | --- | --- |
| 0.01 to 100 | 1 to 500 | 0.01 to 100 | 0.01 to 100 |  | CCc1cc(C2=CCN(C(=O)NC)CC2)ccc1N(C)c1cc2c(cn1)ncn2C [Compound 204, 4-(3-ethyl-4-(methyl(1-methyl-1H-imidazo[4,5-c]pyridin-6-yl)amino)phenyl)-N-methyl-5,6-dihydropyridine-1(2H)-carboxamide] |  |
| 101 to 500 | 501 to 1000 | 0.01 to 100 | 101 to 500 |  | CCc1cc(-c2cnn(CC#N)c2)ccc1N(C)c1cc2c(cn1)ncn2C [Compound 209, 2-(4-(3-ethyl-4-(methyl(1-methyl-1H-imidazo[4,5-c]pyridin-6-yl)amino)phenyl)-1H-pyrazol-1-yl)acetonitrile] |  |
| 0.01 to 100 | 501 to 1000 | 0.01 to 100 | 501 to 1000 |  | CCc1cc(-c2cnc(NC)nc2)ccc1N(C)c1cc2c(cn1)ncn2C [Compound 211, N-(2-Ethyl-4-(2-(methylamino)pyrimidin-5-yl)phenyl)-N,1-dimethyl-1H-imidazo[4,5-d]pyridin-6-amine] |  |
| 101 to 500 | > 1000 | 0.01 to 100 | > 1000 |  | CCc1cc(-c2cnc(OC3COC3)nc2)ccc1N(C)c1cc2c(cn1)ncn2C [Compound 212, N-(2-Ethyl-4-(2-(oxetan-3-yloxy)pyrimidin-5-yl)phenyl)-N,1-dimethyl-1H-imidazo[4,5-c]pyridin-6-amine] |  |
| 101 to 500 | > 1000 | 0.01 to 100 | > 1000 |  | CCc1cc(-c2cnc(OCC#N)nc2)ccc1N(C)c1cc2c(cn1)ncn2C [Compound 217, 2-(5-(3-ethyl-4-(methyl(1-methyl-1H-imidazo[4,5-c]pyridin-6-yl)amino)phenyl)pyrimidin-2-yloxy)acetonitrile] |  |
| 501 to 1000 | > 1000 | 0.01 to 100 | > 1000 |  | CCc1cc(-c2cncc(S(C)(=O)=O)c2)ccc1N(C)c1cc2c(cn1)ncn2C [Compound 218, N-(2-ethyl-4-(5-(methylsulfonyl)pyridin-3-yl)phenyl)-N,1-dimethyl-1H-imidazo[4,5-c]pyridin-6-amine] |  |
| 0.01 to 100 | 501 to 1000 | 0.01 to 100 | 101 to 500 |  | CCc1cc(-c2cnn(CC(=O)N(C)C)c2)ccc1N(C)c1cc2c(cn1)ncn2C [Compound 220, 2-(4-(3-ethyl-4-(methyl(1-methyl-1H-imidazo[4,5-c]pyridin-6-yl)amino)phenyl)-1H-pyrazol-1-yl)-N,N-dimethylacetamide] |  |
| 101 to 500 | > 1000 | 0.01 to 100 | > 1000 |  | CCc1cc(-c2cnn(CC(=O)C(C)(C)C)c2)ccc1N(C)c1cc2c(cn1)ncn2C [Compound 221, 1-(4-(3-ethyl-4-(methyl(1-methyl-1H-imidazo[4,5-c]pyridin-6-yl)amino)phenyl)-1H-pyrazol-1-yl)-3,3-dimethylbutan-2-one] |  |
| 0.01 to 100 | 1 to 500 | 0.01 to 100 | 101 to 500 |  | CCc1cc(-c2cnn(CC(N)=O)c2)ccc1N(C)c1cc2c(cn1)ncn2C [Compound 222, 2-(4-(3-Ethyl-4-(methyl(1-methyl-1H-imidazo[4,5-c]pyridin-6-yl)amino)phenyl)-1H-pyrazol-1-yl)acetamide] |  |
